Experimental data from ChEMBL document CHEMBL4689842, “EUbOPEN Chemogenomics Library wave 1” (2021).

Tests used:
Assay type in all cases: toxicity, cell-based
HEK-293T = experiment: Incucyte cell viability with HEK293T; conditions: human, 10 µM, compound concentration 10 uM
Fibroblast = experiment: Incucyte cell viability with human fibroblast; conditions: 10 µM, compound concentration 10 uM
U2OS = experiment: Incucyte cell viability with U2OS; conditions: human, 10 µM, compound concentration 10 uM
[1] = 0 h, replicate number 1, timepoint 0 hours
[2] = 0 h, replicate number 2, timepoint 0 hours
[3] = 6 h, replicate number 1, timepoint 6 hours
[4] = 12 h, replicate number 1, timepoint 12 hours
[5] = 18 h, replicate number 1, timepoint 18 hours
[6] = 18 h, replicate number 2, timepoint 18 hours
[7] = 24 h, replicate number 1, timepoint 24 hours
[8] = 24 h, replicate number 2, timepoint 24 hours
[9] = 6 h, replicate number 2, timepoint 6 hours
[10] = 12 h, replicate number 2, timepoint 12 hours

Measured: Growth Rate
Note: filed as whole numbers so only -1 and 0 and 1 occur.

c1ccc(Nc2nc3c(s2)CCCc2[nH]ncc2-3)nc1
0: HEK-293T; [2] | HEK-293T; [3] | HEK-293T; [4] | HEK-293T; [5] | HEK-293T; [7] | Fibroblast; [3] | Fibroblast; [7] | U2OS; [2] | U2OS; [9] | U2OS; [5] | U2OS; [7]
1: HEK-293T; [1] | HEK-293T; [6] | HEK-293T; [8] | Fibroblast; [4] | Fibroblast; [5] | U2OS; [3] | U2OS; [4] | U2OS; [6]

CCCc1c(OCCCOc2ccc(OCC(=O)O)cc2)ccc(C(C)=O)c1O
1: HEK-293T; [1] | HEK-293T; [3] | HEK-293T; [4] | HEK-293T; [5] | HEK-293T; [7] | Fibroblast; [2] | Fibroblast; [3] | Fibroblast; [4] | Fibroblast; [5] | Fibroblast; [7] | U2OS; [2] | U2OS; [9] | U2OS; [10] | U2OS; [5] | U2OS; [8]
0: HEK-293T; [2] | HEK-293T; [9] | Fibroblast; [1] | Fibroblast; [9] | U2OS; [1] | U2OS; [4] | U2OS; [7]

CN1CCN(c2cnc3c(C4CCN(C(=O)c5ccc(OC(F)(F)F)cc5N)CC4)ncnc3c2)CC1 [BAY-885]
1: HEK-293T; [2] | HEK-293T; [8] | Fibroblast; [1] | Fibroblast; [4] | Fibroblast; [6] | Fibroblast; [8] | U2OS; [9] | U2OS; [10] | U2OS; [6] | U2OS; [8]
0: HEK-293T; [1] | Fibroblast; [2] | Fibroblast; [3] | Fibroblast; [5] | Fibroblast; [7] | U2OS; [1] | U2OS; [3] | U2OS; [4] | U2OS; [5] | U2OS; [7]

Cc1c(NC(=O)c2cc(C(N)=O)nc3cc(F)ccc23)c(C(F)(F)F)nn1Cc1ccc(C#N)cc1 [BAY-876]
1: U2OS; [1] | U2OS; [3]
0: HEK-293T; [2] | HEK-293T; [3] | HEK-293T; [4] | HEK-293T; [5] | HEK-293T; [7] | Fibroblast; [1] | Fibroblast; [3] | Fibroblast; [4] | Fibroblast; [5] | Fibroblast; [7] | U2OS; [2] | U2OS; [9] | U2OS; [4] | U2OS; [5] | U2OS; [7]

C[C@@H](c1cccc(C#N)c1)n1cc(Cl)cc(C(N)=O)c1=N.Cl
1: HEK-293T; [3] | HEK-293T; [10] | HEK-293T; [5] | HEK-293T; [7] | Fibroblast; [2] | Fibroblast; [3] | Fibroblast; [5] | Fibroblast; [7] | U2OS; [4] | U2OS; [5] | U2OS; [7]
0: HEK-293T; [1] | HEK-293T; [4] | Fibroblast; [1] | Fibroblast; [9] | Fibroblast; [10] | Fibroblast; [8] | U2OS; [1]

CC(C)(C)OC(=O)N1CCCC1CNC1CCC(c2cc(F)ccc2F)(S(=O)(=O)c2ccc(Cl)cc2)CC1 (stereo not given) [GSI-NC]
0: HEK-293T; [1] | HEK-293T; [3] | HEK-293T; [10] | HEK-293T; [8] | Fibroblast; [2] | Fibroblast; [3] | Fibroblast; [4] | Fibroblast; [5] | Fibroblast; [7] | U2OS; [1] | U2OS; [3] | U2OS; [4] | U2OS; [5] | U2OS; [7]
1: HEK-293T; [2] | HEK-293T; [4] | HEK-293T; [5] | HEK-293T; [7] | Fibroblast; [9]

O=C(NS(=O)(=O)c1ccc(NCC2CCOCC2)c([N+](=O)[O-])c1)c1ccc(N2CCN(Cc3ccc(C(F)(F)F)cc3-c3ccc(Cl)cc3)CC2)cc1Oc1cnc2[nH]ccc2c1 [A-1210227]
0: HEK-293T; [1] | HEK-293T; [3] | Fibroblast; [1] | U2OS; [1] | U2OS; [3] | U2OS; [10] | U2OS; [5] | U2OS; [8]
1: HEK-293T; [8] | Fibroblast; [3] | Fibroblast; [4] | Fibroblast; [5] | Fibroblast; [7] | U2OS; [4] | U2OS; [7]

CC(C)OC(=O)C1=CN(C(=O)c2ccc(F)c(F)c2)CC(C)(C)c2c1[nH]c1ccccc21 [TUROFEXORATE ISOPROPYL]
0: HEK-293T; [1] | HEK-293T; [3] | HEK-293T; [4] | HEK-293T; [5] | HEK-293T; [7] | Fibroblast; [1] | Fibroblast; [3] | Fibroblast; [4] | Fibroblast; [5] | Fibroblast; [7] | U2OS; [1] | U2OS; [4] | U2OS; [5] | U2OS; [7]
1: U2OS; [6] | U2OS; [8]

CO[C@@H](C)c1c(Nc2ccc([C@@H](N(C)C(=O)C3CCS(=O)(=O)CC3)C(F)(F)F)cc2)cnc2cc(Cl)nn12 [NVS-MALT1-C]
0: HEK-293T; [3] | HEK-293T; [4] | HEK-293T; [5] | HEK-293T; [7] | Fibroblast; [1] | Fibroblast; [3] | Fibroblast; [10] | U2OS; [1] | U2OS; [3] | U2OS; [5] | U2OS; [8]
1: HEK-293T; [1] | Fibroblast; [4] | Fibroblast; [5] | Fibroblast; [7] | U2OS; [2] | U2OS; [4] | U2OS; [7]

CC(C)(Sc1ccc(CCN(CCCCC2CCCCC2)C(=O)NC2CCCCC2)cc1)C(=O)O [GW7647]
0: HEK-293T; [2] | HEK-293T; [3] | HEK-293T; [4] | HEK-293T; [5] | HEK-293T; [7] | Fibroblast; [1] | Fibroblast; [3] | Fibroblast; [4] | Fibroblast; [7] | U2OS; [1]
1: HEK-293T; [1] | HEK-293T; [9] | HEK-293T; [10] | HEK-293T; [6] | Fibroblast; [5] | Fibroblast; [8] | U2OS; [9] | U2OS; [4] | U2OS; [5] | U2OS; [7]

Cl.O=C(O)Cc1cccc(OCCCN(Cc2cccc(C(F)(F)F)c2Cl)CC(c2ccccc2)c2ccccc2)c1
0: HEK-293T; [1] | HEK-293T; [10] | HEK-293T; [5] | HEK-293T; [7] | Fibroblast; [1] | Fibroblast; [9] | Fibroblast; [10] | Fibroblast; [6] | Fibroblast; [7] | U2OS; [1] | U2OS; [9] | U2OS; [4] | U2OS; [5]
1: HEK-293T; [3] | HEK-293T; [4] | Fibroblast; [3] | Fibroblast; [4] | Fibroblast; [5] | U2OS; [6] | U2OS; [7]

CCCCN(CCCC)C(=O)CN1C[C@H](c2cc(OC)c3c(c2)OCO3)[C@@H](C(=O)O)[C@@H]1CC(C)(C)CCC.Cc1ccc(S(=O)(=O)O)cc1
0: HEK-293T; [1] | HEK-293T; [9] | HEK-293T; [10] | HEK-293T; [6] | HEK-293T; [8] | Fibroblast; [1] | Fibroblast; [7] | U2OS; [1] | U2OS; [3] | U2OS; [5]
1: HEK-293T; [3] | HEK-293T; [4] | HEK-293T; [5] | HEK-293T; [7] | Fibroblast; [3] | Fibroblast; [4] | Fibroblast; [5] | Fibroblast; [8] | U2OS; [4] | U2OS; [6] | U2OS; [7]
